Assay results from patent US10632113B2, “Abuse-resistant drug formulations with built-in overdose protection” (KASHIV BIOSCIENCES, LLC, priority 2014, dated 2020).
Structures can show the parent of a compound that is named as a salt.

Legend:
[1] = Dissolution studies using USP Apparatus II, single vs multiple doses; assay type: physicochemical; conditions: Type A + Type C granules in capsule, 250 ml medium pH 1.6, 10, 30, 60, 120 minutes
[2] = Binding studies using USP Apparatus I (naloxone to ion exchange polymer); assay type: physicochemical; conditions: 1:1 molar naloxone:Amberlite IRP64, 500 mL 0.1 N HCl / 5 mM phosphate buffer pH 6.8
Procedure: The following experiment was done. • 1. Based on the 1:1 molar ratio of naloxone:Amberlite™ IRP64, take the required quantity of naloxone and Amberlite™ IRP64 blend in a capsule and add it to 500 mL of the medium (0.1 N HCl/5 mM Phosphate buffer, pH 6.8). • 2. Withdraw dissolution samples at 10, 30 and 60 mins. • 3. Centrifuge the samples at 3000 rpm for 10 mins and filter through fritted filter ([…]) to get the supernatant for analysis. The results are illustrated in FIG. 9.

SMILES | percentage of drug released, multiple doses versus single dose [1] | percentage of naloxone hydrochloride bonded to ion exchange polymer, multiple doses versus single dose [2]
COc1ccc2c3c1O[C@H]1C(=O)CC[C@@]4(O)[C@@H](C2)N(C)CC[C@]314.Cl [oxycodone hydrochloride] | drastically reduced | 
C=CCN1CC[C@]23c4c5ccc(O)c4O[C@H]2C(=O)CC[C@@]3(O)[C@H]1C5 [naloxone hydrochloride] |  | drastically increases
